In US7728036B2, “Methods for delivery of catecholic butanes for treatment of tumors” (priority 2003, dated 2010):

Assays:
Solubility character = type: physicochemical
[1] = system: HPV-16 transformed immortal mouse epithelial cells (C3); conditions: intratumor injection; cited from earlier work
[2] = system: human mammary carcinoma MX-1 xenograft; conditions: intratumor injection or topical application of NDGA; cited from earlier work

SMILES	Water solubility / hydrophilic or lipophilic character (Solubility character)	Suppression of tumor growth / tumoricidal activity [1]	Inhibition of tumor growth [2]
C[C@H](Cc1ccc(OC(=O)CN(C)C)c(OC(=O)CN(C)C)c1)[C@@H](C)Cc1ccc(OC(=O)CN(C)C)c(OC(=O)CN(C)C)c1 [G4N, meso-1,4-bis[3,4-(dimethylaminoacetoxy)phenyl]-(2R,3S)-dimethylbutane]	water-soluble, hydrophilic	some evidence of suppression of tumor growth	
CC(Cc1ccc(O)c(O)c1)C(C)Cc1ccc(O)c(O)c1 (stereo not drawn) [NDGA, nordihydroguaiaretic acid]			Some evidence of inhibition of tumor growth
